From patent US20120015923A1, “USE OF ANDROGRAPHOLIDE COMPOUNDS FOR TREATING INFLAMMATION AND AIRWAY DISORDERS” (NATIONAL UNIVERSITY OF SINGAPORE, priority 2009, published 2012)

Assays:
[1] = tested on: OVA-induced inflammatory cell recruitment; assay: BAL fluid total and differential inflammatory cell counts, OVA mouse asthma model; type: in vivo, BALB/c mice; conditions: for total cell count in BAL fluid: 0.1, 0.5 and 1 mg/kg i.p. 2 h before and 10 h after each challenge; for total cell count in BAL fluid / eosinophil count in BAL fluid: BAL fluid 24 hours after last OVA aerosol, vs DMSO control; for eosinophil count in BAL fluid: 0.1, 0.5 and 1 mg/kg i.p.; for OVA-induced inflammatory cell counts in BAL fluid: sensitized mice 24 hours after last OVA aerosol challenge, 0.1, 0.5, 1 mg/kg
Experimental: Female BALB/c mice (Interfauna, East Yorkshire, UK), were housed in appropriate cages (maximum 4 mice/cage) at the Animal Holding Unit (AHU), NUS. The temperature and humidity of the housing environment were maintained at approximately 22° C. and 55% respectively. Commercial mouse feed and water were provided ad libitum. The beddings were changed three times a week to ensure cleanliness of the living conditions. The handling of mice and the experiments carried out strictly followed the guidelines approved by the Institutional Animal Care and Use Committee (IACUC) of NUS, Singapore.
All mice were acclimatized for at least one week before sensitization. A sensitization mixture was prepared by dissolving 20 μg of OVA and 4 mg of Al(OH)3 in 0.1 ml of Saline. The murine asthma model was developed by sensitizing the mice with 0.1 ml of sensitization mixture on Day 0 and Day 14 using intraperitoneal (i.p.) injections.
The sensitized mice were subjected to airway challenge to produce both the control model as well as the asthma model. A challenge mix was prepared by dissolving 0.15 g OVA into 15 ml of saline solution. The mice were then challenged with aerosolized 1% OVA for 30 minutes on Day 22, 23, 24 to stimulate asthmatic response. A negative control for the asthma model was developed by performing saline challenge on several mice. In this case, 15 ml of saline was used as the challenge mix.
Andrographolide or DDAG alone (0.1, 0.5, and 1 mg/kg; Sigma, St. Louis, Mo.) or vehicle (1% dimethyl sulfoxide [DMSO]) in 0.1 ml saline was given by intraperitoneal injections 2 hour before and 10 hours after each OVA aerosol challenge. Andrographolide or 14-deoxy-11,12-didehydroandrographolide (DDA) were prepared from stock. DMSO was used as a solvent to dissolve Andrographolide or DDA. A stock solution of 10 mg/ml was prepared and stored at −20° C. When used, the stock solution was thawed and diluted with Saline solution to form three different drug concentrations: 0.01 mg/ml, 0.05 mg/ml and 0.1 mg/ml.
Bronchoalveolar lavage (BAL) was conducted on Day 25, 24 hours after the final OVA/saline challenge. Mice were anaesthetized by 0.3 ml i.p. injections of an anesthetic cocktail (ketamine: medetomidine: H2O=3:4:33, Parnell, Alexandria NSW, Australia & Pfizer, Auckland, New Zealand) with 27 G½ sterile needle (PrecisionGlide®). Mice were sacrificed by cervical dislocation 5 minutes after anesthetization. 25 G½ sterile needles (PrecisionGlide®) were used for blood extraction. […] Tracheotomy was then performed and a small transverse incision was made on the exposed trachea. Blunt needles (20 G), which were connected to 1 ml sterile syringes, were inserted into the trachea through this incision and 0.5 ml of ice-cold PBS (4° C.) was instilled thrice into the lungs (0.5 ml×3). About 1.2-1.4 ml of BAL fluid was retrieved from each mouse and was kept in −80° C. for subsequent experiments.
BAL fluid collected from the lungs of the mouse was centrifuged at 3000 rpm for 5 min at 4° C. The supernatant was collected and stored at −80° C. The pellet was resuspended in 200 μl of 0.875% NH4Cl (8.75 mg NH4Cl in 1 ml MilliQ water) and incubated for 5 minutes at room temperature to remove unwanted erythrocytes. The cell suspension was then centrifuged at 3000 rpm for 5 min at 4° C. The supernatant was discarded and the pellet containing inflammatory cells was resuspended in 200 μl of RPMI with 1% BSA (10 mg BSA in 1 ml RPMI). The total number of viable cells was enumerated using a haemocytometer (10 μl of 0.4% trypan blue: 10 μl of cell suspension), under a microscope at 200×magnification.
Following the total cell count, dilutions were performed on the BAL fluid collected with the RPMI/BSA solution (1×10^5 cells per 150 μl of RPMI/BSA). Cytocentrifugation was then carried out on all samples using a Cytospin centrifuge (Thermo Shandon, Pittsburgh, USA) at 600 g for 10 minutes to fix the cells on glass slides. […]

[2] = tested on: IL-6, IL-8 and RANTES mRNA in normal human bronchial epithelial cells; assay: TNF-α-induced cytokine mRNA expression in normal human bronchial epithelial cells; type: cell-based; conditions: 10 ng/ml TNF-α for 12 hours; 30 μM
Experimental: To determine the effects of andrograhpolide on OVA-specific immune responses in lymphocytes, thoracic lymph node cells were grown in bronchial epithelial bulletkit medium (Cambrex BioScience, Walkersvile, Md., USA), supplemented with bovine pituitary extract (2 ml), hydrocortisone (0.5 ml), recombinant human EGF (0.5 ml), epinephrine (0.5 ml), transferrin (0.5 ml), insulin (0.5 ml), retinoic acid (0.5 ml), triiodothyronine (0.5 ml), gentamycin sulfate (50 μg/ml), and amphotericin B (50 ng/ml). The cells were incubated in 5% CO2 incubator at 37° C., and subcultured at 80% to 85% confluency. Cells were exposed to 200 μg/ml OVA for 72 hours. Concanavalin A (Con A, 10 μug/ml) was used as a positive control. Supernatants from parallel triplicate cultures were analyzed for cytokine levels by ELISA. Normal human bronchial epithelial cells were cultured in optimized bronchial epithelial bulletkit medium with supplements (Lonza, Basel, Switzerland). Cells were pretreated with 30 μM andrographolide or vehicle (0.01% DMSO) 4 hours before stimulation with 10 ng/ml tumor necrosis factor (TNF)-α. Total and nuclear proteins, and mRNA were extracted from cells at specified time intervals.
PCR amplifications were then performed using the multiwell thermal cycler on 1 μl cDNA template in a 25 μl reaction volume. The reaction volume contained 10.5 μl nuclease-free water, 0.5 μl forward primer (10 μM), 0.5 μl reverse primer (10 μM) and 12.5 μl 2×PCR master mix (50 units/ml TaqDNA polymerase, 400 μM dATP, 400 μM dGTP, 400 μM dCTP, 400 μM dTTP and 3 mM MgCl2).

[3] = OVA-challenged mice, high dose 1 mg/kg i.p.

For `C=C1CC[C@@H]2[C@](C)(CO)[C@H](O)CC[C@@]2(C)[C@@H]1C/C=C1/C(=O)OC[C@H]1O` [Andrographolide], the “total cell count in BAL fluid” value ([1]; OVA-challenged mice) was “inhibited”, the “eosinophil count in BAL fluid” value ([1]; OVA-challenged mice) was “inhibited” and the “OVA-induced lymphocyte counts in BAL fluid” value ([1]; OVA-challenged mice, dose not stated) was “inhibited”. The “OVA-induced inflammatory cell counts in BAL fluid” value [1] was “dose-dependently reduced”, the “TNF-α-induced up-regulation of IL-6 mRNA expression” value [2] was “noticeably blocked” and the “TNF-α-induced up-regulation of IL-8 mRNA expression” value [2] was “noticeably blocked”. The “TNF-α-induced up-regulation of RANTES mRNA expression” value [2] was “noticeably blocked”.

`C=C1CCC2C(C)(CO)C(O)CCC2(C)C1C=CC1=CCOC1=O` (centres unmarked) [DDAG, 14-Deoxy-11,12-didehydroandrographolide] was tested, and the “total cell count in BAL fluid” value ([1]; OVA-challenged mice) was “drastically decreased”, the “eosinophil count in BAL fluid” value ([1]; OVA-challenged mice) was “drastically decreased” and the “lymphocyte count in BAL fluid” value [1, 3] was “reduced”. The “macrophage count in BAL fluid” value [1, 3] was “reduced”, the “anti-inflammatory effects in mouse asthma model” value ([1]; low dose given alone) was “do not show any anti-inflammatory effects” and the “OVA-induced inflammatory cell counts in BAL fluid” value [1] was “dose-dependently reduced”. The “TNF-α-induced up-regulation of RANTES mRNA expression” value [2] was “strongly suppressed”.
